# Source: the supplement of paper PMC10307832
# What was measured:
# Assay in all cases: relative viability (nuclei count vs DMSO), 5 days (fraction); higher = more cells survive
# Doramapimod + Alpelisib = compound: Cc1ccc(-n2nc(C(C)(C)C)cc2NC(=O)Nc2ccc(OCCN3CCOCC3)c3ccccc23)cc1 [Doramapimod] + Cc1nc(NC(=O)N2CCC[C@H]2C(N)=O)sc1-c1ccnc(C(C)(C)C(F)(F)F)c1 [Alpelisib] (partner 2 µM)
# Procedure, shortened: (§1)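 Cells from lung cancer lines were seeded into 1536-well plates and, one day later, dosed by pin tool. Treatments were either a single drug or a fixed dose of an anchor drug with five library-drug doses (not always all listed) in √10 steps. After 5 days, nuclei were stained in a one-step fixation (final 0.05% Triton X-100, 1% formaldehyde, 1 ug/ml Hoechst) and counted on 4× images, and relative viability is the treated-to-vehicle nuclei ratio, as the median of duplicate plates.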
# Doramapimod + Decitabine = compound: Cc1ccc(-n2nc(C(C)(C)C)cc2NC(=O)Nc2ccc(OCCN3CCOCC3)c3ccccc23)cc1 [Doramapimod] + Nc1ncn([C@H]2C[C@H](O)[C@@H](CO)O2)c(=O)n1 [Decitabine] (partner 2 µM)
# Procedure, shortened: as §1
# RAF265 + Palbociclib = compound: Cn1c(Nc2ccc(C(F)(F)F)cc2)nc2cc(Oc3ccnc(-c4ncc(C(F)(F)F)[nH]4)c3)ccc21 [RAF265] + CC(=O)c1c(C)c2cnc(Nc3ccc(N4CCNCC4)cn3)nc2n(C2CCCC2)c1=O [Palbociclib] (partner 0.5 µM)
# Procedure, shortened: as §1
# RAF265 + Vorinostat = compound: Cn1c(Nc2ccc(C(F)(F)F)cc2)nc2cc(Oc3ccnc(-c4ncc(C(F)(F)F)[nH]4)c3)ccc21 [RAF265] + O=C(CCCCCCC(=O)Nc1ccccc1)NO [Vorinostat] (partner 1 µM)
# Procedure, shortened: as §1
Cell Line,relative viability (Doramapimod + Alpelisib; first compound 0.02 µM),relative viability (Doramapimod + Alpelisib; first compound 0.06325 µM),relative viability (Doramapimod + Alpelisib; first compound 0.2 µM),relative viability (Doramapimod + Alpelisib; first compound 0.6325 µM),relative viability (Doramapimod + Alpelisib; first compound 2 µM),relative viability (Doramapimod + Decitabine; first compound 0.02 µM),relative viability (Doramapimod + Decitabine; first compound 0.06325 µM),relative viability (Doramapimod + Decitabine; first compound 0.2 µM),relative viability (Doramapimod + Decitabine; first compound 0.6325 µM),relative viability (Doramapimod + Decitabine; first compound 2 µM),relative viability (RAF265 + Palbociclib; first compound 0.01 µM),relative viability (RAF265 + Palbociclib; first compound 0.03162 µM),relative viability (RAF265 + Palbociclib; first compound 0.1 µM),relative viability (RAF265 + Palbociclib; first compound 0.3162 µM),relative viability (RAF265 + Palbociclib; first compound 1 µM),relative viability (RAF265 + Vorinostat; first compound 0.01 µM),relative viability (RAF265 + Vorinostat; first compound 0.03162 µM),relative viability (RAF265 + Vorinostat; first compound 0.1 µM),relative viability (RAF265 + Vorinostat; first compound 0.3162 µM),relative viability (RAF265 + Vorinostat; first compound 1 µM)
NCI-H3122,0.952,0.831,0.756,0.776,0.863,0.427,0.445,0.394,0.491,0.415,0.18,0.216,0.19,0.198,0.19,1.02,1.01,0.93,0.965,0.631
NCI-H1395,1.07,1.08,0.93,1.14,0.938,0.745,0.722,0.71,0.682,0.64,0.634,0.56,0.567,0.597,0.437,0.791,0.65,0.807,0.554,0.587
NCI-H2009,1.23,1.22,1.22,1.13,1.13,0.35,0.408,0.45,0.384,0.329,0.264,0.224,0.162,0.17,0.144,0.744,0.649,0.757,0.761,0.512
NCI-H1651,0.788,0.987,0.876,0.962,0.859,0.632,0.678,0.608,0.569,0.608,0.508,0.517,0.504,0.479,0.47,0.61,0.637,0.521,0.591,0.453
HARA,0.807,0.762,0.742,0.846,0.598,0.52,0.463,0.49,0.574,0.42,0.298,0.277,0.235,0.215,0.178,0.454,0.64,0.537,0.546,0.192
NCI-H1944,0.756,0.829,0.765,0.829,0.71,0.459,0.491,0.447,0.423,0.414,0.356,0.367,0.291,0.261,0.185,0.674,0.602,0.55,0.405,0.491
NCI-H2347,1.09,0.926,1.06,1.05,0.957,0.671,0.604,0.626,0.656,0.634,0.485,0.405,0.406,0.391,0.363,0.611,0.517,0.564,0.458,0.344
201T,1.04,1,0.992,1.07,0.982,0.857,0.863,0.886,0.921,0.925,0.344,0.326,0.369,0.377,0.338,0.975,0.966,0.998,0.974,0.994
PC-14,1.01,1.06,0.892,0.995,0.89,0.261,0.22,0.215,0.277,0.197,0.47,0.495,0.519,–,0.35,0.743,0.642,0.632,–,0.619
NCI-H727,0.5,0.587,0.598,0.675,0.528,0.855,0.852,0.999,0.736,0.767,0.684,0.626,0.692,0.611,0.602,1.26,1.16,1.03,1.24,0.862
COR-L23,0.762,0.719,0.755,0.734,0.697,0.409,0.412,0.507,0.432,0.41,0.295,0.233,0.235,0.184,0.148,0.487,0.297,0.392,0.268,0.248
HOP-62,0.898,1.14,0.896,0.975,0.874,0.267,0.268,0.176,0.208,0.211,0.416,0.457,0.423,0.392,0.216,0.664,0.542,0.56,0.507,0.332
NCI-H1915,1.04,1.1,1.12,1.11,1.08,0.24,0.256,0.256,0.261,0.255,0.525,0.435,0.438,0.236,0.147,0.502,0.436,0.424,0.296,0.201
BEN,0.903,0.876,1.05,0.97,0.95,0.69,0.769,0.799,0.512,0.675,0.459,0.477,0.509,0.468,0.441,0.569,0.586,0.6,0.662,0.544
NCI-H1437,0.904,1.01,0.915,0.926,0.965,0.541,0.554,0.647,0.624,0.598,0.318,0.315,0.305,0.366,0.306,0.823,0.778,0.947,0.887,0.715
EMC-BAC-2,0.75,0.736,0.727,0.761,0.695,1,0.905,0.99,0.955,0.858,0.533,0.431,0.373,0.345,0.176,0.449,0.359,0.306,0.141,0.103

Cell Line,relative viability (Doramapimod + Alpelisib; first compound 0.02 µM),relative viability (Doramapimod + Alpelisib; first compound 0.06325 µM),relative viability (Doramapimod + Alpelisib; first compound 0.2 µM),relative viability (Doramapimod + Alpelisib; first compound 0.6325 µM),relative viability (Doramapimod + Alpelisib; first compound 2 µM),relative viability (Doramapimod + Decitabine; first compound 0.02 µM),relative viability (Doramapimod + Decitabine; first compound 0.06325 µM),relative viability (Doramapimod + Decitabine; first compound 0.2 µM),relative viability (Doramapimod + Decitabine; first compound 0.6325 µM),relative viability (Doramapimod + Decitabine; first compound 2 µM),relative viability (RAF265 + Palbociclib; first compound 0.01 µM),relative viability (RAF265 + Palbociclib; first compound 0.03162 µM),relative viability (RAF265 + Palbociclib; first compound 0.1 µM),relative viability (RAF265 + Palbociclib; first compound 0.3162 µM),relative viability (RAF265 + Palbociclib; first compound 1 µM),relative viability (RAF265 + Vorinostat; first compound 0.01 µM),relative viability (RAF265 + Vorinostat; first compound 0.03162 µM),relative viability (RAF265 + Vorinostat; first compound 0.1 µM),relative viability (RAF265 + Vorinostat; first compound 0.3162 µM),relative viability (RAF265 + Vorinostat; first compound 1 µM)
NCI-H647,1.26,1.15,1.14,1.12,1.03,0.44,0.331,0.39,0.418,0.365,0.335,0.401,0.196,0.228,0.218,0.627,0.411,0.585,0.397,0.356
LXF-289,1.03,0.992,1.01,1.02,0.956,0.374,0.393,0.354,0.373,0.351,0.622,0.615,0.625,0.498,0.313,0.768,0.752,0.754,0.606,0.571
LOU-NH91,0.794,0.728,0.728,0.893,0.574,0.858,0.806,0.84,0.849,0.711,0.565,0.524,0.55,0.537,0.436,1,0.807,0.926,0.755,0.712
NCI-H23,0.711,0.64,0.753,0.867,0.59,0.359,0.288,0.358,0.329,0.265,0.499,0.342,0.304,0.262,0.206,0.701,0.496,0.39,0.248,0.229
NCI-H1993,0.765,0.617,0.707,0.626,0.664,0.537,0.578,0.511,0.668,0.53,0.584,0.595,0.661,0.575,0.507,0.9,0.902,0.756,0.823,0.768
HCC-827,0.931,1.01,0.97,1.01,0.612,0.34,0.38,0.326,0.243,0.211,0.462,0.494,0.489,–,0.395,0.866,0.808,0.543,–,0.704
NCI-H650,1.16,1.17,1.23,1.34,1.23,0.326,0.339,0.35,0.323,0.325,0.306,0.345,0.303,0.232,0.206,0.442,0.418,0.42,0.277,0.232
NCI-H838,0.973,0.953,1,1.09,0.971,0.455,0.477,0.499,0.476,0.472,0.203,0.222,0.193,0.176,0.154,0.735,0.716,0.72,0.691,0.632
RERF-LC-KJ,0.857,0.865,0.765,1.01,0.867,0.733,0.669,0.663,0.684,0.669,1.06,1.23,1.05,0.885,0.832,0.704,0.647,0.772,0.649,0.582
NCI-H661,0.593,0.732,0.618,1.04,0.515,0.563,0.564,0.63,0.631,0.492,0.457,0.408,0.337,0.326,0.344,0.834,0.698,0.639,0.554,0.568
HCC-366,0.403,0.325,0.38,0.39,0.299,0.373,0.276,0.315,0.37,0.28,0.403,0.312,0.286,0.205,0.137,0.307,0.344,0.252,0.205,0.146
SK-LU-1,0.901,0.925,1.14,1.19,0.866,0.636,0.617,0.662,0.637,0.592,0.399,0.342,0.33,0.318,0.251,0.715,0.449,0.443,0.36,0.262
HCC-44,0.811,0.764,0.756,0.76,0.701,0.958,0.984,1.03,0.945,0.978,1.01,0.908,0.96,1.04,1.01,1.02,1.07,1.19,1.08,1.06
A-427,1.07,1.1,1.15,–,1.08,0.588,0.557,0.536,–,0.541,0.579,0.488,0.541,0.436,0.238,0.89,0.829,0.892,0.733,0.423
SW 1573,0.766,0.712,0.644,0.726,0.549,0.506,0.388,0.615,0.575,0.366,0.419,0.328,0.312,0.245,0.215,1,0.763,0.834,0.792,0.582
NCI-H322M,0.774,0.734,0.785,0.801,0.933,0.722,0.671,0.736,0.785,0.706,0.474,0.498,0.425,0.381,0.326,0.875,0.866,0.516,0.403,0.348
